Experimental data from patent US10004809B2, “Precise delivery of therapeutic agents to cell mitochondria for anti-cancer therapy” (UNIVERSITY OF GEORGIA RESEARCH FOUNDATION, INC., priority 2013, dated 2018).

How the values were obtained:
Assay type in all cases: cell-based, Human
PC3 cells [1] = experiment: JC-1 assay of mitochondrial membrane potential (Δψm), live cell imaging; details: for JC-1 Green:Red fluorescence ratio: 6 h
From the text: An early indication of the initiation of cellular apoptosis is the collapse in the electrochemical gradient across the mitochondrial membrane, as measured by the change in the Δψm (Perry et al., BioTechniques 50:98-115, 2011). […] The potential-sensitive color shift is due to the concentration dependent formation of red fluorescent “J aggregates.” Mitochondrial depolarization is indicated by an increase in the green/red fluorescence intensity ratio. Live cell imaging of prostate cancer (PCa) PC3 cells treated with Na-DCA (150 μM), TPP-DCA (150 μM), or MITO-DCA (50 μM), followed by staining with JC-1, and a comparative analysis of the JC-1 green/red fluorescence ratio from PC3 cells in response to these three DCA analogues are represented in FIG. 3. […] Quantification of fluorescence intensities was carried out using ImageJ and the corrected total cell fluorescence (CTCF) values are represented as histograms (FIG. 3).
PC3 cells were cultured on a live cell imaging glass bottom dish at a density of 1×10^6 cells/mL and allowed to grow overnight at 37° C. Cells were treated with 150 μM Na-DCA, 150 μM TPP-DCA, and 50 μM MITO-DCA for 6 h at 37° C. A solution of JC-1 reagent (10 μg/mL in RPMI) was added and incubation was carried out at 37° C. for 20 min. The cells were washed 3 times with PBS, and live cell imaging was performed in phenol red free RPMI media.

MSC cells = experiment: Annexin V/PI apoptosis detection by flow cytometry
Experimental: In order to determine whether the enhanced activity of MITO-DCA upon targeting this compound to the mitochondria of cells was due to apoptosis rather than necrosis, an ALEXA FLUOR™ 488-Annexin-V and propidium iodide (PI) cell staining in PC3 and MSC cells was carried out and data were analyzed using flow cytometry (FIG. 4B). As controls, etoposide treated cells were used as early apoptosis population and H2O2 treated cells were marked as late apoptotic or necrotic population. […] There were no late apoptotic or necrotic cells observed with these compounds.
PC3 and MSC cells were seeded at a density of 1×10^6 cells/mL on each well of a six well plate and allowed to grow overnight. Cells were treated with 50 μM Na-DCA, 150 μM TPP-DCA, and 150 μM MITO-DCA for 12 h at 37° C. As positive controls, etoposide (100 μM, incubation time: 12 h) for apoptosis and H2O2 (1 mM, incubation time: 45 min) for necrosis were used. The cells were trypsinized, repeatedly washed, and centrifuged at 1,800 RPM for 3 min, and the supernatants were discarded. Cell density was determined and cells were resuspended in 1× annexin-binding buffer to ˜1×10^6 cells/mL preparing a sufficient volume to have 100 µL per assay. To 100 μL of cell suspension, 5 μL ALEXA FLUOR™ 488 annexin V and 1 µL 100 μg/mL PI working solution were added and incubated for 15 min at room temperature. After the incubation period, 400 μL 1× annexin-binding buffer was added to each sample, samples were gently mixed keeping the samples on ice and the samples were analyzed on the flow cytometer immediately.

PC3 cells [2] = experiment: Intracellular lactate determination; details: 6 h
From the text: Cytosolic metabolism of glucose to pyruvate occurs before its entry into mitochondria for oxidative phosphorylation. However, if not metabolized through oxidative phosphorylation as found in cancer, pyruvate gets converted by lactate dehydrogenase through glycolysis to lactate. Glycolysis in the absence of oxidative phosphorylation in cancer causes rise in lactate concentration. To test the ability of MITO-DCA to switch glucose metabolism from glycolysis to oxidative phosphorylation in cancer cells, intracellular lactate levels in glycolytic PC3 cells were measured and compared the value with those observed in less glycolytic LNCaP and normal MSC cells (FIG. 5A). To understand the importance of mitochondria targeting ligand and to explore the importance of a Tris platform to increase number of DCA molecule per targeting ligand, the parent drug Na-DCA and TPP-DCA were used as controls. Treatment of PC3 cells with 50 μM of MITO-DCA for 6 h reduced the intracellular lactate levels by 58±5%. […] Pronounced lactate concentration differences were observed between […] glycolytic PC3 and healthy MSC cells (FIG. 5A). […] None of the DCA compounds has any effect on the lactate levels in MSC cells (FIG. 5A).
PC3, LNCaP, and MSC cells were seeded at a density of 1×10^6 cells/mL on each well of a 12 well plate and allowed to grow overnight at 37° C. under 5% CO2. Cells were treated with 150 μM Na-DCA, 150 μM TPP-DCA, and 50 μM MITO-DCA for 6 h at 37° C. After 6 h, the media was removed and the cells were homogenized. The lysate was added to the enzyme and substrate working reagent mixture and incubated for 30 min. Lactate concentration was measured using Bio-Tek Synergy HT microplate reader at 450 nm and comparing to a standard curve.

PC3 cells [3] = experiment: CELLTITER-GLO luminescent intracellular ATP quantification; details: for Increase in intracellular ATP levels: 3 h; for ATP level and cell growth at high concentration: PC3 cells, 6 h
Experimental: A decrease in cancer cell lactate levels is expected to be associated with an increase in ATP production. Intracellular ATP levels in PC3, LNCaP, and MSC cells treated with MITO-DCA (20 μM), TPP-DCA (60 μM), and Na-DCA (60 μM) were measured.
PC3 or MSC cells were plated at a density of 10,000 cells per well in 96-well plates compatible with the luminometer used in 100 μL media. […] Control wells containing medium without cells were prepared to obtain a value for background luminescence. Plates were then equilibrated at room temperature for ˜30 min. A volume of CELLTITER-GLO™ reagent equal to the volume of cell culture medium present in each well was added, this mixtures were well mixed for 2 min using a shaker to induce cell lysis. The plates were allowed to incubate at room temperature for 10 min to stabilize luminescent signal. Luminescent was recorded using a plate reader. ATP quantification was carried out from a standard curve using ATP disodium salt hydrate.

SMILES | Change in Δψm (JC-1 imaging) (PC3 cells [1]; 150 μM) | JC-1 Green:Red fluorescence ratio (PC3 cells [1]; 150 μM) | Apoptosis (annexin V/PI) (MSC cells; 150 μM) | Reduction of intracellular lactate levels (PC3 cells [2]; 150 μM) [%] | Increase in intracellular ATP levels (PC3 cells [3]; 60 μM) | ATP level and cell growth at high concentration (PC3 cells [3]; 150 μM) | Change in Δψm (JC-1 imaging) (PC3 cells [1]; 50 μM) | JC-1 Green:Red fluorescence ratio (PC3 cells [1]; 50 μM) | Apoptosis (annexin V/PI) (MSC cells; 50 μM) | Reduction of intracellular lactate levels (PC3 cells [2]; 50 μM) [%] | Increase in intracellular ATP levels (PC3 cells [3]; 20 μM) [%] | ATP level and cell growth at high concentration (PC3 cells [3]; 50 μM)
O=C(OCCC[P+](c1ccccc1)(c1ccccc1)c1ccccc1)C(Cl)Cl.[Br-] [TPP-DCA] | showed red fluorescence in most cells | 0.49±0.09 | did not undergo apoptosis | 30±2 | did not show any significant increase | ATP reduction and cell growth inhibition | – | – | – | – | – | –
O=C(CCCCC[P+](c1ccccc1)(c1ccccc1)c1ccccc1)NC(COC(=O)C(Cl)Cl)(COC(=O)C(Cl)Cl)COC(=O)C(Cl)Cl.[Br-] [MITO-DCA] | – | – | – | – | – | – | induced marked changes in Δψm | 3.96±0.96 | did not undergo apoptosis | 58±5 | ~44 | ATP reduction and cell growth inhibition
